PMC8318231, “Rate-of-Kill (RoK) assays to triage large compound sets for Chagas disease drug discovery: Application to GSK Chagas Box” (PLoS Neglected Tropical Diseases, 2021)

How the values were obtained:
TcCYP51 = conditions: formerly reported; cited from earlier work
[1] = system: T. cruzi intracellular amastigotes in H9c2 cells; assay: Rate-of-Kill (RoK) high-content imaging assay, amastigotes per cell (AM/CELL) and curve descriptors; assay type: cell-based, Trypanosoma cruzi; parameters: key to ME_24h / ME_48h / ME_72h: % reduction in parasite burden (cidal response); t50pct_MCC50 / t50pct_Cmax: unit not given here; conditions: for ME_24h: 24h; for ME_48h: 48h; for ME_72h: 72h; for tlag_Cmax / t50pct_Cmax / t50%_Cmax: at Cmax; for ME_24h (%): maximum effect at 24 h; for ME_24h (%) / ME_48h (%) / ME_72h (%): RoK assay; for ME_48h (%): maximum effect at 48 h; for ME_72h (%): maximum effect at 72 h; for ME 24h (maximum effect at 24 hours, intracellular amastigotes): maximum percentage of parasite burden reduction reached by any concentration
Procedure, shortened: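 H9c2 cardiomyocytes infected with T. cruzi trypomastigotes (MOI 8, 18 h), then compounds tested at 5 μM single shot or 11-point 1/3 dilution from 50 μM. DRAQ5-stained nuclei imaged over a time course. Amastigotes per cell normalised to infected cells at 4 h (0%) and non-infected cells (100%).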

SMILES | CYP51 pIC50 (TcCYP51) | ME_24h ([1]; figure 5) | ME_48h ([1]; figure 5) | ME_72h ([1]; figure 5) | MCCE ([1]; RoK curve descriptor) [µM] | AM/CELL NORM ([1]; Time 4, sheet figure 4 A) | AM/CELL NORM ([1]; Time 24, sheet figure 4 A) | AM/CELL NORM ([1]; Time 48, sheet figure 4 A) | AM/CELL NORM ([1]; Time 72, sheet figure 4 A) | tlag_Cmax [1] [h] | t50pct_Cmax ([1]; figure 5) | tlag_Cmax ([1]; figure 5) | t50pct_MCC50 ([1]; at MCC50, figure 5) | tlag_MCC50 ([1]; at MCC50, figure 5) | MCCE ([1]; figure 5) | ME_24h (%) [1] [%] | ME_48h (%) [1] [%] | ME_72h (%) [1] [%] | ME 24h (maximum effect at 24 hours, intracellular amastigotes) [1] [%] | MCC50 ([1]; RoK curve descriptor) [µM] | also measured
O=C(NCc1ccncc1)c1ccccc1N1CCCN(C(=O)Cc2ccc(F)c(F)c2)CC1.O=C(O)C(F)(F)F.O=C(O)C(F)(F)F [TCMDC-143300] | 7.1 | -279.048 | -72.5657 | 30.5548 | 0.07 | -9.816 | -279.048 | -94.5412 | 9.95 | 24.0 | 72 | 24 | 72 | 72 | 0.06859 | -279.1 | -72.6 | 30.6 | -279.048 |  | MCC50 ([1]; figure 5): 50 µM
CC1CN(S(=O)(=O)c2ccc(NC(=O)c3cc(C4CC4)nc4c3cnn4C(C)C)cc2)CC(C)O1 (centres unmarked) [TCMDC-143200] | < 4 | 2.192 | 1.8894 | 56.9286 | 1.9 | -14.9286 | 2.192 | -23.2452 | 15.376 | 4.0 | 72 | 4 | 72 | 24 | 1.852 | 2.2 | 1.9 | 56.9 | 2.192 | 1.9 | t50%_MCC50 ([1]; at MCC50): 72.0 h; tlag_MCC50 ([1]; at MCC50): 24.0 h; MCC50 ([1]; figure 5, in µM): 1.852
CCN(C)Cc1ccc(N2CCC(NS(=O)(=O)c3ccc4c(c3)CCO4)CC2)nc1 [TCMDC-143244] | < 4 | -27.3777 | 29.749 | 55.3707 | 5.6 | 16.0918 |  |  |  | 24.0 | 72 | 24 | 72 | 48 | 5.556 | -27.4 | 29.8 | 55.4 | -2.6188 | 5.6 | AM/CELL NORM ([1]; Time 24, figure 4 A): -52.1365; AM/CELL NORM ([1]; Time 48, figure 4 A): 10.0549; AM/CELL NORM ([1]; Time 72, figure 4 A): 24.5494; t50%_Cmax [1]: 72.0 h; t50%_MCC50 ([1]; at MCC50): 72.0 h; tlag_MCC50 ([1]; at MCC50): 24.0 h; MCC50 ([1]; figure 5, in µM): 27.7778
O=C(NCCc1cccnc1)c1ccc(-c2ccccc2F)o1 [TCMDC-143190] | 7.2 | -188.225 | -99.3488 | 47.7023 | 0.2 | 10.7478 | -116.413 | -106.707 | 59.1013 | 24.0 | 72 | 24 | 72 | 48 | 0.2058 | -188.2 | -99.4 | 47.7 | -116.413 | 5.6 | t50%_Cmax [1]: 72.0 h; t50%_MCC50 ([1]; at MCC50): 72.0 h; tlag_MCC50 ([1]; at MCC50): 24.0 h; MCC50 ([1]; figure 5, in µM): 27.7778
O=C(NCCc1ccccc1Cl)c1cccn1-c1cccnc1 [TCMDC-143253] | 7.1 | -106.211 | -219.247 | 24.5352 | 0.6 | -14.0913 | -106.211 | -401.6 | -120.948 | 48.0 | 72 | 48 | 72 | 72 | 0.6173 | -106.2 | -219.3 | 24.5 | -106.211 |  | MCC50 ([1]; figure 5): 50 µM
CCC(=O)Nc1ccc(C(=O)Nc2ccccc2-c2ccccc2)cc1 [TCMDC-143286] | < 4 | 59.883 | 81.1358 | 89.3246 | 0.6 | 27.4861 | 59.883 | 81.1358 | 89.3246 | 4.0 | 24 | 4 | 48 | 4 | 0.6173 | 59.9 | 81.1 | 89.3 | 59.883 | 1.9 | t50%_Cmax [1]: 24.0 h; t50%_MCC50 ([1]; at MCC50): 48.0 h; tlag_MCC50 ([1]; at MCC50): 4.0 h; MCC50 ([1]; figure 5, in µM): 1.852
CCCn1c(NC(=O)Cc2ccc(Cl)cc2)nc2ccccc21 [TCMDC-143279] | < 4 | -55.8269 | -85.7556 | -269.589 | 9.3 | 0.2091 | -159.496 | -347.093 | -621.538 | 38.0 | 72 | 38 | 60 | 48 | 9.259 | -55.8 | -85.8 | -269.6 | 3.26 | 5.6 | t50%_MCC50 ([1]; at MCC50): 48.0 h; tlag_MCC50 ([1]; at MCC50): 24.0 h; MCC50 ([1]; figure 5, in µM): 27.7778
CCN(CC)S(=O)(=O)c1ccc(C(=O)Nc2cc(C)nn2-c2nc(C)c(C)c(=O)[nH]2)cc1 [TCMDC-143273] | < 4 | -21.3076 | 17.6407 | 21.9061 | 0.6 | -1.286 | -40.8598 | 1.208 | 53.2799 | 24.0 | 72 | 24 | 72 | 38 | 0.6173 | -21.3 | 17.6 | 21.9 | 4.663 | 1.9 | t50%_Cmax [1]: 72.0 h; t50%_MCC50 ([1]; at MCC50): 72.0 h; tlag_MCC50 ([1]; at MCC50): 4.0 h; MCC50 ([1]; figure 5, in µM): 25.9259
